Measurements: US20210238197A1, “NOVEL OXOQUINOLIZINE COMPOUNDS FOR THE TREATMENT AND PROPHYLAXIS OF BACTERIAL INFECTION” (Hoffmann-La Roche Inc., priority 2018, published 2021)
Values after ≈ are worked out from the molar mass of the structure shown. Read-outs that look alike come from different tables or passages of the source.

Experiments:
[1] = Cytotoxicity assay (HepG2, CellTiter-Blue); type: cell-based; conditions: human; HepG2 cells, 3 days treatment; >100 = detection limit
Method: The cytotoxicity of compounds of present invention was assessed by HepG2 assay. HepG2 cells (ATCC RB-8065™) were seeded into 96-well plates (1.2×10^4 cells per well) and treated with compounds for 3 days, cell viability was measured at day 3 post compound treatment using the CellTiter-Blue® Cell Viability Assay (Promega, Cat. No. G8082). […], of Cell titer blue buffer were added to each well of the cells, which were incubated for 3 hours at 37° C., and the fluorescence value was measured by a plate reader (Molecular Device SpectraMax M2). The CC50 value of each compound is plotted with GraphPad Prism using four parameter logistic equation.

[2] = tested on: multiple species and strains; assay: microbe, parasite or virus in culture; set-up: MIC S9 / MIC S7 / MIC S11 / MIC S8 / MIC S10: unit not given beside the values; conditions: for MIC S9: E. coli ATCC 35218
Method: The MIC of antibacterial compounds against multiple species and strains was determined using the broth microdilution method according to M07-A10 Clinical and Laboratory Standards Institute (CLSI) guidelines (CLSI (2015) Methods for dilution antimicrobial susceptibility tests for bacteria that grow aerobically; Approved Standard, Tenth Edition. CLSI Document M7-A10 (ISBN 1-56238-987-4). Wayne, Pa.: Clinical and Laboratory Standards Institute, 19087, USA.). In short, bacterial strain preparation was performed on D1 and D2. […] 5-10 well-isolated colonies of similar morphology were selected and re-streaked onto fresh agar plates using sterile loops and incubated for 20-24 hr at 35±2° C. Bacterial strains were subcultured two times to ensure fresh inoculums for MIC screening. […] Alternatively, 1-2 colonies were transferred into 500 μL of saline and OD600 was adjusted to ˜0.1 using an OD meter. Bacterial inoculum was diluted by 1:280 for Gram-positive strains and 1:400 for Gram-negative strains into corresponding medium broth (CAMHB, CAMHB+3% lysed horse blood, HTM) (e.g. 35.6 μL of inoculum into 10 mL of CAMHB or 25 μL of inoculum into 10 mL of CAMHB). For compound plate, the compound stock solutions were prepared in 100% DMSO on the day of MIC screening and used immediately. Compound stock concentration=[(highest testing concentration)×100 μL/2 μL] (e.g. if the required highest testing concentration is 64 μg/mL in assay plates, stock concentration=64 μg/mL×100 μL/2 μL=3.2 mg/mL). […] 1 μL of each well was transferred in a new MTP, which served as the test plate by subsequent inoculation. The bacterial suspension prepared above is dispensed at 98 μL/well within 15 minutes after preparation. Negative controls (lack of bacterial cells) and growth control wells (lack of compound) were included in all plates. MTPs were incubated for 18-24 hours at 35±2° C. in ambient air. The MIC was recorded and CFUs were calculated on Day 4. The assay plate was placed on the top of MIC reader, and the magnification mirror was adjusted to read each wells, recording growth status as raw data. Photo images of each assay plates were recorded using Q Count 530 (Spiral Biotech). The MIC value of each compound, expressed as μg/mL, was determined as the lowest concentration required for complete growth inhibition (no visible growth).

A. baumannii (ATCC17978) = assay: 50% growth inhibitory concentration (IC50) determination assay, A. baumannii; type: cell-based; conditions: Acinetobacter baumannii, ATCC17978; Iso-Sensitest broth, growth by OD 600 nm over 16 h; <0.098 = detection limit
Method: (§1) The in vitro antimicrobial activity of the compounds against S. aureus (ATCC29213), K. pneumoniae (ATCC10031), and A. baumannii (ATCC17978), was determined according to the following procedure: The assay used a 10-points Iso-Sensitest broth medium to measure quantitatively the in vitro activity of the compounds against S. aureus ATCC29213, K. pneumoniae ATCC 10031, and A. baumannii ATCC17978. Stock compounds in DMSO were serially two-fold diluted (range from 50 to 0.097 μM final concentration) in 384 wells microtiter plates and inoculated with 49 μL the bacterial suspension in Iso-Sensitest broth medium to have a final cell concentration of ˜5×10^5 CFU/mL in a final volume/well of 50 μL/well. Microtiter plates were incubated at 35±2° C. Bacterial cell growth was determined with the measurement of optical density at λ=600 nm each 20 minutes over a time course of 16 h.

S. aureus (ATCC29213) = assay: 50% growth inhibitory concentration (IC50) determination assay, S. aureus; type: cell-based; conditions: Staphylococcus aureus, ATCC29213; Iso-Sensitest broth, growth by OD 600 nm over 16 h; <0.098 = detection limit
Method: as §1

[3] = tested on: K. pneumoniae (ATCC10031); assay: 50% growth inhibitory concentration (IC50) determination assay, K. pneumoniae; type: cell-based; conditions: Klebsiella pneumoniae, ATCC10031; Iso-Sensitest broth, growth by OD 600 nm over 16 h; <0.098 = detection limit
Method: as §1

[4] = Acinetobacter baumannii, ATCC19606, read-out: MIC S1, A. baumannii ATCC 19606
[5] = Acinetobacter baumannii, ATCC51432, read-out: MIC S2, A. baumannii ATCC 51432
[6] = Acinetobacter baumannii, ATCCBAA747, read-out: MIC S3, A. baumannii ATCC BAA-747
[7] = Escherichia coli, ATCC25922, read-out: MIC S11, E. coli ATCC 25922
[8] = Escherichia coli, ATCCBAA2340, read-out: MIC S10, E. coli ATCC BAA-2340
[9] = Klebsiella pneumoniae, ATCC10031, read-out: MIC S4, K. pneumoniae ATCC 10031
[10] = Klebsiella pneumoniae, ATCC700603, read-out: MIC S5, K. pneumoniae ATCC 700603
[11] = Klebsiella pneumoniae, ATCCBAA2146, read-out: MIC S6, K. pneumoniae ATCC BAA-2146
[12] = Pseudomonas aeruginosa, ATCC27853, read-out: MIC S7, P. aeruginosa ATCC 27853
[13] = Pseudomonas aeruginosa, ATCCBAA2113, read-out: MIC S8, P. aeruginosa ATCC BAA-2113

Row | Structure (SMILES) | CC50 at 3 days [1] | MIC [2, 4] | MIC [2, 5] | MIC [2, 6] | MIC S9 [2] | MIC [2, 7] | MIC [2, 8] | MIC [2, 9] | MIC [2, 10] | MIC [2, 11] | MIC [2, 12] | MIC [2, 13] | IC50 (A. baumannii (ATCC17978)) | IC50 (S. aureus (ATCC29213)) | IC50 [3]
1 | CNc1cc(F)c(Cl)c2c1[nH]c1ncc(-c3ccc4ccc(C(=O)O)c(=O)n4c3)c(N3CC[C@@]4(C[C@@H]4N)C3)c12 (single isomer, unassigned) [Example 5.01A] | > 100 µM | 1.03 µg/mL (≈ 1.88 µM) | 1.03 µg/mL (≈ 1.88 µM) | 1.03 µg/mL (≈ 1.88 µM) | 0.516 | 0.194 µg/mL (≈ 0.355 µM) | 0.516 µg/mL (≈ 0.943 µM) | 0.032 µg/mL (≈ 0.0585 µM) | 2.07 µg/mL (≈ 3.78 µM) | 4.13 µg/mL (≈ 7.55 µM) | 2.07 µg/mL (≈ 3.78 µM) | 2.07 µg/mL (≈ 3.78 µM) | – | – | –
2 | CNc1cc(F)cc2c1[nH]c1ncc(-c3ccc4ccc(C(=O)O)c(=O)n4c3)c(N3CCOCC3)c12 [Example 1.02, 7-(6-fluoro-8-(methylamino)-4-morpholino-9H-pyrido[2,3-b]indol-3-yl)-4-oxo-4H-quinolizine-3-carboxylic acid] | 24.1 µM | – | – | – | – | – | – | – | – | – | – | – | < 0.098 µM | 0.159 µM | < 0.098 µM
3 | CNc1cc(F)c(F)c2c1[nH]c1ncc(-c3ccc4ccc(C(=O)O)c(=O)n4c3)c(N3CC4[C@H](CC[C@H]4N(C)C)C3)c12 (stereo partly drawn) [Example 1.05, 7-[4-[cis-(4R)-4-(dimethylamino)-3,3a,4,5,6,6a-hexahydro-1H-cyclopenta[c]pyrrol-2-yl]-5,6-difluoro-8-(methylamino)-9H-pyrido[2,3-b]indol-3-yl]-4-oxo-quinolizine-3-carboxylic acid] | 15.5 µM | – | – | – | – | – | – | – | – | – | – | – | – | – | –
4 | CNc1cc(F)c(Cl)c2c1[nH]c1ncc(-c3ccc4ccc(C(=O)O)c(=O)n4c3)c(N3C[C@H]4CC[C@@H](N(C)C)[C@H]4C3)c12 [Example 1.08, 7-[4-[cis-(4R)-4-(dimethylamino)-3,3a,4,5,6,6a-hexahydro-1H-cyclopenta[c]pyrrol-2-yl]-5-chloro-6-fluoro-8-(methylamino)-9H-pyrido[2,3-b]indol-3-yl]-4-oxo-quinolizine-3-carboxylic acid] | – | 0.274 µg/mL (≈ 0.465 µM) | 0.274 µg/mL (≈ 0.465 µM) | 0.548 µg/mL (≈ 0.93 µM) | 0.548 | 0.206 µg/mL (≈ 0.35 µM) | 0.548 µg/mL (≈ 0.93 µM) | 0.069 µg/mL (≈ 0.117 µM) | 4.39 µg/mL (≈ 7.46 µM) | 2.2 µg/mL (≈ 3.73 µM) | 2.2 µg/mL (≈ 3.73 µM) | 4.39 µg/mL (≈ 7.46 µM) | < 0.098 µM | < 0.098 µM | < 0.098 µM
5 | CNc1cc(F)c(C#N)c2c1[nH]c1ncc(-c3ccc4ccc(C(=O)O)c(=O)n4c3)c(N3CC4C(N(C)C)CO[C@@H]4C3)c12 (stereo partly drawn) [Example 1.15, 7-[5-cyano-4-[cis-3-(dimethylamino)-2,3,3a,4,6,6a-hexahydrofuro[2,3-c]pyrrol-5-yl]-6-fluoro-8-(methylamino)-9H-pyrido[2,3-b]indol-3-yl]-4-oxo-quinolizine-3-carboxylic acid] | 75.4 µM | – | – | – | – | – | – | – | – | – | – | – | < 0.098 µM | 0.103 µM | < 0.098 µM
6 | CNc1cc(F)c(F)c2c1[nH]c1ncc(-c3ccc4ccc(C(=O)O)c(=O)n4c3)c(N3C[C@H]4CCN(C)[C@H]4C3)c12 [Example 3.03A, 7-[4-[(3aR,6aR)-1-methyl-2,3,3a,4,6,6a-hexahydropyrrolo[3,4-b]pyrrol-5-yl]-5,6-difluoro-8-(methylamino)-9H-pyrido[2,3-b]indol-3-yl]-4-oxo-quinolizine-3-carboxylic acid] | – | 0.106 µg/mL (≈ 0.195 µM) | 0.212 µg/mL (≈ 0.389 µM) | 0.212 µg/mL (≈ 0.389 µM) | 0.425 | 0.08 µg/mL (≈ 0.147 µM) | 0.425 µg/mL (≈ 0.78 µM) | 0.027 µg/mL (≈ 0.0496 µM) | 3.4 µg/mL (≈ 6.25 µM) | 1.7 µg/mL (≈ 3.13 µM) | 0.85 µg/mL (≈ 1.56 µM) | 3.4 µg/mL (≈ 6.25 µM) | < 0.098 µM | < 0.098 µM | < 0.098 µM
7 | CNc1cc(F)c(F)c2c1[nH]c1ncc(-c3ccc4ccc(C(=O)O)c(=O)n4c3)c(N3CC[C@H]4CCN(C)[C@H]4C3)c12 [Example 3.04A, 7-[4-[(3aR,7aR)-1-methyl-3,3a,4,5,7,7a-hexahydro-2H-pyrrolo[2,3-c]pyridin-6-yl]-5,6-difluoro-8-(methylamino)-9H-pyrido[2,3-b]indol-3-yl]-4-oxo-quinolizine-3-carboxylic acid] | – | 0.218 µg/mL (≈ 0.39 µM) | 0.218 µg/mL (≈ 0.39 µM) | 0.218 µg/mL (≈ 0.39 µM) | 0.218 | 0.082 µg/mL (≈ 0.147 µM) | 0.218 µg/mL (≈ 0.39 µM) | 0.027 µg/mL (≈ 0.0483 µM) | 1.75 µg/mL (≈ 3.13 µM) | 1.75 µg/mL (≈ 3.13 µM) | 0.436 µg/mL (≈ 0.781 µM) | 3.49 µg/mL (≈ 6.25 µM) | < 0.098 µM | < 0.098 µM | < 0.098 µM
8 | CNc1cc(F)c(Cl)c2c1[nH]c1ncc(-c3ccc4ccc(C(=O)O)c(=O)n4c3)c(N3CC[C@]4(C[C@H]4N)C3)c12 [Example 5.01B, 7-(4-((1R,3S)-1-amino-5-azaspiro[2.4]heptan-5-yl)-5-chloro-6-fluoro-8-(methylamino)-9H-pyrido[2,3-b]indol-3-yl)-4-oxo-4H-quinolizine-3-carboxylic acid] | > 100 µM | 0.516 µg/mL (≈ 0.943 µM) | 1.03 µg/mL (≈ 1.88 µM) | 1.03 µg/mL (≈ 1.88 µM) | 0.516 | 0.097 µg/mL (≈ 0.177 µM) | 0.516 µg/mL (≈ 0.943 µM) | 0.032 µg/mL (≈ 0.0585 µM) | 4.13 µg/mL (≈ 7.55 µM) | 4.13 µg/mL (≈ 7.55 µM) | 2.07 µg/mL (≈ 3.78 µM) | 2.07 µg/mL (≈ 3.78 µM) | – | – | –
